# Measured values from patent publication US11851391B2, “Antifungal compounds and methods of forming the same” (University of Kentucky Research Foundation, priority 2018, dated 2023).
# Read-outs that look alike come from different tables or passages of the source.
# Legend:
# [1] = system: Candida krusei ATCC 6258 (strain I); test: MIC determination, in vitro antifungal assay (CLSI M27-A3); assay type: cell-based; settings: MIC-0, 48 h at 35° C.
# In short: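 Broth microdilution per CLSI M27-A3 in RPMI 1640 buffered to pH 7.0 with 0.165 M MOPS, incubated at 35 °C. Overnight YPD-grown yeast adjusted to OD600 0.12, then diluted to 2-4×10^3 CFU/mL inoculum; final DMSO <1.25%.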
# [2] = system: C. albicans ATCC 64124(R) (strain B); test: as above; assay type: cell-based, Candida albicans; settings: strain B, MIC-0, 48 h at 35° C.
# In short: (§1)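 RPMI 1640/0.165 M MOPS, pH 7.0, 35° C; inoculum 2-4×10^3 CFU/mL from overnight YPD culture adjusted to OD600 0.12 first. CLSI M27-A3, modified. DMSO <1.25%. Endpoint: MIC-0, complete growth inhibition.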
# [3] = system: C. albicans ATCC 90819(R) (strain D); test: as above; assay type: cell-based, Candida albicans; settings: MIC-0, 48 h at 35° C.
# In short: as §1
# [4] = system: C. albicans ATCC MYA-2310(S) (strain E); test: as above; assay type: cell-based, Candida albicans; settings: MIC-0, 48 h at 35° C.
# In short: as §1
# [5] = system: C. albicans ATCC MYA-1237(R) (strain F); test: as above; assay type: cell-based, Candida albicans; settings: MIC-0, 48 h at 35° C.
# In short: as §1
# [6] = system: human lung carcinoma cell line A549; test: In vitro cytotoxicity assay (resazurin); assay type: cell-based; settings: 24 h
# Description: The human bronchus normal cell line BEAS-2B (ATCC CRL-9609) and the human lung carcinoma cell line A549 (ATCC CRL-185) were kind gifts from the laboratories of Dr. Matthew S. Gentry (University of Kentucky, Lexington, KY, USA) and Dr. David K. Orren (University of Kentucky, Lexington, KY, USA). The mammalian cells were grown in Dulbecco's Modified Eagle's Medium (DMEM) (from ATCC) with 10% fetal bovine serum (FBS) (from ATCC) and 1% Pen/Strep (from ATCC). Cell lines were cultured at 37° C. with 5% CO2 and passaged by trypsinization with 0.05% trypsin:0.53 mM EDTA (from ATCC). Cell confluency was determined by using a Nikon Eclipse TS100 microscope (Minato, Tokyo, Japan).
# Cytotoxicity assays were performed as previously described with slight modifications. A549 and BEAS-2B cells were first thawed from stocks and grown. The confluent cells were transferred to a 96-well microtiter plates at density of 3000 cells/well. The 96-well plates were incubated at 37° C. with 5% CO2 overnight. […] The stock solutions were serially diluted in 1.5 mL eppendorf tubes to achieve concentrations of 31-0.12 mg/mL. 1 μL of these 1000× compound stock solutions was then added to 999 μL of DMEM medium in 1.5 mL eppendorf tubes to obtain final concentrations of 31-0.12 μg/mL. […] The 96-well plates were further incubated for 24 h at 37° C. with 5% CO2. To evaluate cell survival, each well was treated with 10 μL (25 mg/L) of resazurin sodium salt (Sigma-Aldrich, St. Louis, MO, USA) and incubated for another 6 h. Metabolically active cells can convert resazurin to the highly fluorescent dye, resorufin, and be detected at A560 excitation and A590 emission using a SpectraMax M5 plate reader (Molecular Devices, San Jose, CA, USA). […] The percentage survival rates were calculated by using the following formula: % cell survival=[(fluorescence of sample)−(fluorescence of background)]×100/[(fluorescence of negative control)−(fluorescence of background)]. Experiments were done in duplicate.
# [7] = Pichia kudriavzevii, ATCC6258, 48 h, read-out: MIC
# [8] = Candida albicans, ATCC64124, 48 h, read-out: MIC
# [9] = Candida albicans, ATCC90819, 48 h, read-out: MIC
# [10] = Candida albicans, 48 h, read-out: MIC
# [11] = A549 (printed A459) at 31 μg/mL
Compound,MIC [1],"MIC [1, 7]","MIC [2, 8]",MIC [2],"MIC [3, 9]","MIC [4, 10]",MIC [4],"MIC [5, 10]",MIC [5],MIC [3],"toxicity (in words) [6, 11]",toxicity (in words) ([6]; A549 at 15.5 μg/mL)
Fc1ccc(N/N=C/c2ccc(-c3cccc(/C=N/Nc4ccc(F)cc4)c3)cc2)cc1 [Compound 17a],–,> 31.3 µg/mL,15.6 µg/mL,–,> 31.3 µg/mL,7.8 µg/mL,–,15.6 µg/mL,–,–,generally non-toxic,–
Fc1cccc(N/N=C/c2ccc(-c3cccc(/C=N/Nc4cccc(F)c4)c3)cc2)c1 [Compound 12a],1.95 µg/mL,1.95 to 3.9 µg/mL,> 31.3 µg/mL,–,7.8 to 15.6 µg/mL,> 31.3 µg/mL,–,7.8 to 15.6 µg/mL,15.6 µg/mL,15.6 µg/mL,–,no toxicity
"C/C(=N\Nc1ccc(F)cc1)c1ccc(-c2ccc(/C(C)=N/Nc3ccc(F)cc3)cc2)cc1 [Compound 17c, 4,4′-bis((E)-1-(2-(4-fluorophenyl)hydrazono)ethyl)-1,1′-biphenyl]",1.95 µg/mL,1.95 to 3.9 µg/mL,1.95 to 3.9 µg/mL,3.9 µg/mL,7.8 µg/mL,1.95 to 3.9 µg/mL,1.95 µg/mL,7.8 µg/mL,–,–,–,no toxicity
COc1ccc(N/N=C/c2ccc(-c3ccc(/C=N/Nc4ccc(OC)cc4)cc3)cc2)cc1 [Compound 15b],7.8 µg/mL,7.8 to 15.6 µg/mL,3.9 µg/mL,3.9 µg/mL,7.8 to 15.6 µg/mL,3.9 µg/mL,3.9 µg/mL,7.8 to 15.6 µg/mL,15.6 µg/mL,7.8 µg/mL,generally non-toxic,–
C(=N\Nc1ccccc1)/c1ccc(-c2cccc(/C=N/Nc3ccccc3)c2)cc1 [Compound 7a],7.8 µg/mL,7.8 to 15.6 µg/mL,31.3 µg/mL,–,31.3 µg/mL,31.3 µg/mL,–,31.3 µg/mL,–,–,–,–

# Now from value to compound, other results behind:
MIC [1],"MIC [1, 7]","MIC [2, 8]",MIC [2],"MIC [3, 9]","MIC [4, 10]",MIC [4],"MIC [5, 10]",MIC [5],MIC [3],Compound,"toxicity (in words) [6, 11]",toxicity (in words) ([6]; A549 at 15.5 μg/mL)
1.95 µg/mL,1.95 µg/mL,7.8 to 15.6 µg/mL,15.6 µg/mL,31.3 µg/mL,7.8 to 15.6 µg/mL,15.6 µg/mL,7.8 to 15.6 µg/mL,7.8 µg/mL,–,Fc1ccc(N/N=C/c2ccc(-c3ccc(/C=N/Nc4ccc(F)cc4)cc3)cc2)cc1 [Compound 17b],–,–
1.95 µg/mL,1.95 to 3.9 µg/mL,7.8 µg/mL,–,15.6 µg/mL,15.6 µg/mL,–,7.8 µg/mL,–,–,Fc1ccc(N/N=C/c2ccc(-c3cccc(/C=N/Nc4ccc(F)cc4F)c3)cc2)c(F)c1 [Compound 20a],–,no toxicity
3.9 µg/mL,1.95 to 3.9 µg/mL,15.6 µg/mL,–,1.95 to 3.9 µg/mL,–,–,1.95 to 3.9 µg/mL,3.9 µg/mL,3.9 µg/mL,COc1ccc(N/N=C/c2ccc(-c3cccc(/C=N/Nc4ccc(OC)cc4)c3)cc2)cc1 [Compound 15a],generally non-toxic,–
